According to paper PMC10886515, “Discovery of A Novel Series of Quinazoline–Thiazole Hybrids as Potential Antiproliferative and Anti-Angiogenic Agents” (Biomolecules, 2024):
pIC50: −log10 of the molar value. Where two headings read alike, the source gives them in different places.

Assays:
BJ cells = assay: Alamar Blue cytotoxicity assay on BJ cells; type: cell-based; conditions: Homo sapiens, 48 h exposure, normal foreskin fibroblasts
Source text: (§1) A human endothelial hybrid cell line (EA.hy926) (passage number 10–15), human hepatocellular carcinoma (HepG2) cells (passage number 10–15), and normal foreskin fibroblasts (BJ) (passage number 5–10) were used in the present study. All cell lines were purchased from ATCC (Manassas, United States of America). EA.hy926 cells were maintained in DMEM with high glucose supplemented with 1% sodium pyruvate, while the BJ cells were maintained in DMEM with low glucose concentration. HepG2 cells were cultured in MEM. All media were supplemented with 10% fetal bovine serum (FBS) and 1% penicillin/streptomycin. All cell lines were cultured at 37 °C in an incubator with 5% CO2 supplementation and cellular media were refreshed every other day. Once the cells reached a confluency of 80–90%, they were either subcultured or used in experiments.
(§2) The synthesized compounds’ cytotoxicity was evaluated using the Alamar Blue (AB) assay as previously described. The metabolically active cell-dependent conversion of non-fluorescent resazurin to the highly fluorescent resorufin compound is quantified spectrophotometrically at λexcitation = 530/25; λemission = 590/35, using a Synergy 2 Multi-Mode microplate reader. Briefly, a total of 5 x 10^3 EA.hy926 and BJ cells and 1 x 10^4 HepG2 cells were seeded in 100 µL in 96 well plates. The cells were left to attach overnight. […] At 48 h post-stimulation, the media were removed, and the AB assay was performed. The reported range of concentrations for each compound was obtained by employing the up-and-down method.
(§3) The experiments were conducted in three biological replicates, each one including 6 technical replicates. Cells exposed to culture media with 0.2% DMSO served as negative control (NC) and were used for data normalization (100%). The 50% Inhibitory Concentration (IC50) values were determined based on the dose–response curves obtained by fitting the experimental data with a 4-parameter logistic curve in SigmaPlot 11 software.

EA.hy926 cells [1] = assay: Alamar Blue cytotoxicity assay on EA.hy926 cells; type: cell-based, human; conditions: for pIC50: Homo sapiens, read-out: IC50 EA.hy926; for Selectivity Index SIa: SIa = IC50 BJ/IC50 EA.hy296
Source text: as §1, §2, §3

HepG2 cells = assay: Alamar Blue cytotoxicity assay on HepG2 cells; type: cell-based, human; conditions: for pIC50: Homo sapiens, read-out: IC50 HepG2; for Selectivity Index SIb: SIb = IC50 BJ/IC50 HepG2
Source text: as §1, §2, §3

EA.hy926 cells [2] = assay: Wound healing (scratch) assay; type: cell-based, human; conditions: 12 h
Description: EA.hy926 cells were seeded in 12-well plates and incubated for 24 h until confluency was reached. The medium was removed and a scratch in the cell monolayer was manually added with a sterile pipette tip. Subsequently, the cells were gently washed two times with DPBS to remove the detached cells. […] Images were captured at the time of exposure (T0) and 12 h post-exposure (T12). The rate of cell migration was determined by calculating the wound healing percentage (%) according to the formula (AT0 – AT12)/ AT0*100 previously reported. The scratch area at the initial time of exposure (AT0) and after 12 h (AT12), expressed as square pixels (Px^2), were determined using the IKOSA Prisma Application Wound Healing (Scratch) assay (v2.2.0).

[3] = tested on: chorioallantoic membrane (CAM) of chicken eggs; assay: Chorioallantoic egg membrane (CAM) assay; type: in vivo; conditions: for peak number of vascular branching points from day 3, fold lower than control sample: day 3 vs control (0.2% DMSO); for reduction in vascular branching on day 4 compared to day 3: day 4 vs day 3; for reduction in the number of vascular branching points on day 5 compared to day 5 of the control sample: day 5 vs control (0.2% DMSO); for reduction in vascular branching on day 5 compared to day 3: day 5 vs day 3
Description: To assess the anti-angiogenic effects, a biological model represented by the chorioallantoic membrane (CAM) of chicken eggs was employed. […] The experimental procedure involved the following steps: (I) initial cleaning with 70% alcohol solution and incubation of the eggs at a constant humidity (45%) and temperature (37.5 °C) on the first day; (II) on the third day of embryonic development (EDD3), a small hole at the egg tip was created and approximately 5–7 mL of albumen were extracted to facilitate detachment of the chorioallantoic membrane from the inner shell; and (III) on EDD4, a window was created at the egg’s top to visualize the vascular plexus, covering it with adhesive tape, and returning the egg to the incubator until the experiment’s commencement.
The assessment of anti-angiogenic impact began on the sixth day of embryonic development and extended over five days. To achieve this, a silicon ring was applied to the CAM, and 10 μL of the tested compounds was administered daily within the ring. The evaluation of angiogenesis involved daily photographic documentation of the vascular plexus using a Discovery v.8 stereomicroscope, a Zeiss Axio CAM 105 color camera, and ZEN core 3.8 software. […] The quantitative evaluation of vessel numbers branching points and total vessel area was performed using the IKOSA Prism Application CAM assay (v3.1.0).

[4] = Solubility observed in the cellular media; type: physicochemical; conditions: plasma or biological fluid, read-out: concentrations at which limited solubility in the cellular media was observed
[5] = EA.hy 926, 48 h exposure, Alamar Blue
[6] = HepG2, 48 h exposure, Alamar Blue

Structure (SMILES)	melting point [°C]	pIC50 (BJ cells)	pIC50 (EA.hy926 cells [1]; [5])	Selectivity Index SIa (EA.hy926 cells [1])	pIC50 (HepG2 cells; [6])	Selectivity Index SIb (HepG2 cells)	also measured
COc1cc2ncnc(Oc3ccc(/C=N/Nc4nc(-c5ccc(C(F)(F)F)cc5)cs4)cc3)c2cc1OC [SA04, (E)-2-(2-(4-((6,7-dimethoxyquinazolin-4-yl)oxy)benzylidene)hydrazineyl)-4-(4-(trifluoromethyl)-phenyl)thiazole]	237 to 238	5.17	6.01	6.93	5.57	2.50	Wound heal (%) (EA.hy926 cells [2]; 0.25 μM): 63.45%; Wound heal (%) (EA.hy926 cells [2]; 0.5 μM): 46.99%; Wound heal (%) (EA.hy926 cells [2]; 0.75 μM): 46.83%; Wound heal (%) (EA.hy926 cells [2]; 1 μM): 43.87%; peak number of vascular branching points from day 3, fold lower than control sample [3]: 1.3 fold; reduction in vascular branching on day 4 compared to day 3 [3]: 47%; reduction in the number of vascular branching points on day 5 compared to day 5 of the control sample [3]: 67%; reduction in vascular branching on day 5 compared to day 3 [3]: 60%
COc1cc2ncnc(Oc3ccc(/C=N/Nc4nc(-c5ccc(C#N)cc5)cs4)cc3)c2cc1OC [SA05, (E)-2-(2-(4-((6,7-dimethoxyquinazolin-4-yl)oxy)benzylidene)hydrazineyl)-4-(4-benzonitrile)thiazole]		5.57	5.85	1.91	5.74	1.46	Wound heal (%) (EA.hy926 cells [2]; 0.75 μM): 66.41%; Wound heal (%) (EA.hy926 cells [2]; 1 μM): 62.45%; Wound heal (%) (EA.hy926 cells [2]; 1.25 μM): 61.52%; Wound heal (%) (EA.hy926 cells [2]; 1.5 μM): 54.42%; peak number of vascular branching points from day 3, fold lower than control sample [3]: 1.18 fold; reduction in vascular branching on day 4 compared to day 3 [3]: 16%; reduction in the number of vascular branching points on day 5 compared to day 5 of the control sample [3]: 42%; reduction in vascular branching on day 5 compared to day 3 [3]: 39%; fold higher activity compared to sorafenib (HepG2 cells; HepG2 cells): 3.5 fold
COc1cc2ncnc(Oc3ccc(/C=N/Nc4nc(C)cs4)cc3)c2cc1OC [SA06, (E)-2-(2-(4-((6,7-dimethoxyquinazolin-4-yl)-oxy)-benzylidene-)hydrazineyl)-4-methyl-thiazole]		< 4.00	< 5.00		< 4.00		solubility [4]: > 5 µM
CNC(=O)c1cc(Oc2ccc(NC(=O)Nc3ccc(Cl)c(C(F)(F)F)c3)cc2)ccn1 [Sorafenib, sorafenib, reference compound]		4.88					pIC50 (EA.hy926 cells [1]; EA.hy 926, 48 h): 5.18; Wound heal (%) (EA.hy926 cells [2]; 1.25 μM): 70.54%; Wound heal (%) (EA.hy926 cells [2]; 2.5 μM): 37.99%; Wound heal (%) (EA.hy926 cells [2]; 5 μM): 18.88%; pIC50 (HepG2 cells; HepG2, 48 h): 5.20

More lines, main results first:

melting point [°C]	Structure (SMILES)	pIC50 (BJ cells)	pIC50 (EA.hy926 cells [1]; [5])	Selectivity Index SIa (EA.hy926 cells [1])	pIC50 (HepG2 cells; [6])	Selectivity Index SIb (HepG2 cells)	also measured
231 to 232	COc1cc2ncnc(Oc3ccc(/C=N/Nc4nc(-c5ccc(Cl)cc5)cs4)cc3)c2cc1OC [SA03, (E)-2-(2-(4-((6,7-dimethoxyquinazolin-4-yl)oxy)benzylidene)hydrazineyl)-4-(4-chlorophenyl)-thiazole]	5.55	6.10	3.59	5.37	0.67	fold higher activity compared to sorafenib (EA.hy926 cells [1]; EA.hy926 cells): 8.3 fold
246 to 247	COc1cc2ncnc(Oc3ccc(/C=N/Nc4nc(-c5ccc(O)c(C(N)=O)c5)cs4)cc3)c2cc1OC [SA07, (E)-5-(2-(2-(4-((6,7-dimethoxyquinazolin-4-yl)oxy)benzylidene)hydrazineyl)thiazol-4-yl)-2-hydroxy-benzamide]	4.62	5.23	4.06	4.56	0.87	
230	COc1ccc(-c2csc(N/N=C/c3ccc(Oc4ncnc5cc(OC)c(OC)cc45)cc3)n2)cc1 [SA01, (E)-2-(2-(4-((6,7-dimethoxyquinazolin-4-yl)oxy)-benzylidene)hydrazineyl)-4-(4-methoxyphenyl)-thiazole]	4.44	5.44	9.96	4.51	1.16	
242 to 243	COc1cc2ncnc(Oc3ccc(/C=N/Nc4nc(-c5ccc(F)cc5)cs4)cc3)c2cc1OC [SA02, (E)-2-(2-(4-((6,7-dimethoxyquinazolin-4-yl)oxy)benzylidene)hydrazineyl)-4-(4-fluorophenyl)-thiazole]	5.63	6.03	2.53	5.63	1.00	
